Reference: ChEMBL document CHEMBL3046714, “Synthesis and Precocious Metamorphosis-Inducing Activity of 3-(1-Alkenyl) pyridines” (J Pestic Sci, 2000)

How the values were obtained:
[1] = system: Bombyx mori; test: Precocious metamorphosis-inducing activity in Bombyx mori Shunrei x Shougetsu fourth-instar larvae assessed as change in body weight compound applied topically measured every 12 hr during fourth-instar period; format: functional
[2] = system: Bombyx mori; test: Precocious metamorphosis-inducing activity in Bombyx mori Shunrei x Shougetsu fourth-instar larvae assessed as change in body weight at >160 ug applied topically measured every 12 hr during fourth-instar period; format: functional
[3] = system: Bombyx mori; test: Precocious metamorphosis-inducing activity in Bombyx mori Shunrei x Shougetsu fourth-instar larvae assessed as change in body weight at >80 ug applied topically measured every 12 hr during fourth-instar period; format: functional
[4] = Toxicity in Bombyx mori Shunrei x Shougetsu fourth-instar larvae assessed as mortality at 160 ug applied topically; format: organism-based; conditions: in vivo, topical or ocular

Structure (SMILES) | ED50 [1] [µg] | Activity [2] [%] | Activity [3] [%] | mortality [4] [%]
C=C(c1ccccc1)c1cccnc1 | 56 | – | – | –
CCCCC=C(c1ccccc1)c1cccnc1 | 102 | – | – | –
CC(C)C=C(c1ccccc1)c1cccnc1 | 27 | – | – | –
CCOC(=O)/C=C(/C)c1cccnc1 | >160 | 0 | – | –
CC=Cc1cccnc1 | >160 | 0 | – | –
CCOC(=O)/C=C/c1cccnc1 | >160 | 0 | – | –
CC(C)CC=C(c1ccccc1)c1cccnc1 | 34 | – | – | –
CC=C(c1ccccc1)c1cccnc1 | 26 | – | – | –
CCC=C(c1ccccc1)c1cccnc1 | 29 | – | – | –
C(=C/c1cccnc1)/c1ccccc1 | >80 | – | 7 | 100
CCOC(=O)C=C(c1ccccc1)c1cccnc1 | 89 | – | – | –
CCOC(=O)/C=C(\C)c1cccnc1 | >160 | 5 | – | –
CCC(c1ccccc1)c1cccnc1 (racemic) | 42 | – | – | –
C(=C\c1cccnc1)/c1ccccc1 | >160 | 9 | – | –
CC(=Cc1ccccc1)c1cccnc1 | 42 | – | – | –
C(=C(c1ccccc1)c1cccnc1)c1ccccc1 | 144 | – | – | –
CCCCCC=C(c1ccccc1)c1cccnc1 | >160 | 35 | – | –
CCCC=C(c1ccccc1)c1cccnc1 | 50 | – | – | –
CC=C(C)c1cccnc1 | >160 | 20 | – | –
